In US9302003B2, “Compositions comprising a radiosensitizer and an anti-cancer agent and methods of uses thereof” (priority 2009, dated 2016):

Tested on: F98 glioma
Test: Surviving assay in Fischer rats implanted with F98 glioma, intra carotid drug delivery with or without Gamma Knife irradiation
Assay type: in vivo
Conditions: F98 glioma-bearing Fischer rats, 1 ml/rat intra-carotid 10 days after implantation; LipoGold with 15 Gy Gamma Knife 8 h later; FIG. 6

SMILES | life span / surviving time
O=C1[O][Pt]2([NH][C@@H]3CCCC[C@H]3[NH]2)[O]C1=O [oxaliplatin] | short life span, similar to sham animals
N.N.[Cl][Pt][Cl] [cisplatin, cis-diammineplatinum(II) dichloride] | died before sham animals
